From the kinase profiling compilation of Christmann-Franck et al. (2016)

How the values were obtained:
Assay in all cases: radiometric filter-binding kinase assay, Kinase HotSpot
Conditions in all cases: compound 0.5 µM; ATP 10 µM
ALK (human) = ALK (human) (UniProt Q9UM73)
AXL (human) = AXL (human) (UniProt P30530)
CAMK2B (human) = CAMK2B (human) (UniProt Q13554)
CDK1 CCNB1 (human) = CDK1 CCNB1 (human) (UniProt P06493+P14635)
CDK5 CDK5R1 p25 (human) = CDK5 CDK5R1 p25 (human) (UniProt Q00535+Q15078)
CDK6 CCND3 (human) = CDK6 CCND3 (human) (UniProt P30281+Q00534)
CDK9 CCNT1 (human) = CDK9 CCNT1 (human) (UniProt P50750+O60563)
CHEK1 (human) = CHEK1 (human) (UniProt O14757)
CSNK1A1 (human) = CSNK1A1 (human) (UniProt P48729)
CSNK2A1 (human) = CSNK2A1 (human) (UniProt P68400)
EPHB4 (human) = EPHB4 (human) (UniProt P54760)
ERBB4 (human) = ERBB4 (human) (UniProt Q15303)
FLT1 (human) = FLT1 (human) (UniProt P17948)
FLT3 (human) = FLT3 (human) (UniProt P36888)
FRK (human) = FRK (human) (UniProt P42685)
FYN (human) = FYN (human) (UniProt P06241)
GRK4 (human) = GRK4 (human) (UniProt P32298)
GRK5 (human) = GRK5 (human) (UniProt P34947)
GRK7 (human) = GRK7 (human) (UniProt Q8WTQ7)
KIT (human) = KIT (human) (UniProt P10721)
MAP4K5 (human) = MAP4K5 (human) (UniProt Q9Y4K4)
MAPK1 (human) = MAPK1 (human) (UniProt P28482)
MAPK11 (human) = MAPK11 (human) (UniProt Q15759)
MAPK13 (human) = MAPK13 (human) (UniProt O15264)
MAPKAPK3 (human) = MAPKAPK3 (human) (UniProt Q16644)
PAK1 (human) = PAK1 (human) (UniProt Q13153)
PDGFRA (human) = PDGFRA (human) (UniProt P16234)
PLK3 (human) = PLK3 (human) (UniProt Q9H4B4)
PRKACA (human) = PRKACA (human) (UniProt P17612)
PRKD1 (human) = PRKD1 (human) (UniProt Q15139)
PRKD2 (human) = PRKD2 (human) (UniProt Q9BZL6)
RAF1 (human) = RAF1 (human) (UniProt P04049)
RET (human) = RET (human) (UniProt P07949)
RPS6KA1 KD1 KD2 (human) = RPS6KA1 KD1 KD2 (human) (UniProt Q15418)
RPS6KA2 KD1 KD2 (human) = RPS6KA2 KD1 KD2 (human) (UniProt Q15349)
SRC (human) = SRC (human) (UniProt P12931)
STK10 (human) = STK10 (human) (UniProt O94804)
TBK1 (human) = TBK1 (human) (UniProt Q9UHD2)
TGFBR2 (human) = TGFBR2 (human) (UniProt P37173)
WEE1 (human) = WEE1 (human) (UniProt P30291)
WNK3 (human) = WNK3 (human) (UniProt Q9BYP7)

Chain of MAPK11 (human) (Q15759 whole entry, looked up): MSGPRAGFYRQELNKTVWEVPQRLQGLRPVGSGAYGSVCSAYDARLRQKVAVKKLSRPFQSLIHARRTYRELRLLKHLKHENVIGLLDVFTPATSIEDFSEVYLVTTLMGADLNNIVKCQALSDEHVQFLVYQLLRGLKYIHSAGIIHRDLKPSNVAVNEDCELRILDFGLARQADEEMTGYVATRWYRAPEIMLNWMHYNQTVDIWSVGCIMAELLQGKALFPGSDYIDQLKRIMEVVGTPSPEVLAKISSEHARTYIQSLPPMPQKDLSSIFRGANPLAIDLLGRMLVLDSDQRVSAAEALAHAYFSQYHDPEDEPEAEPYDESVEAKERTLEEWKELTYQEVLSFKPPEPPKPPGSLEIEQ
Chain of FRK (human) (P42685 whole entry, looked up): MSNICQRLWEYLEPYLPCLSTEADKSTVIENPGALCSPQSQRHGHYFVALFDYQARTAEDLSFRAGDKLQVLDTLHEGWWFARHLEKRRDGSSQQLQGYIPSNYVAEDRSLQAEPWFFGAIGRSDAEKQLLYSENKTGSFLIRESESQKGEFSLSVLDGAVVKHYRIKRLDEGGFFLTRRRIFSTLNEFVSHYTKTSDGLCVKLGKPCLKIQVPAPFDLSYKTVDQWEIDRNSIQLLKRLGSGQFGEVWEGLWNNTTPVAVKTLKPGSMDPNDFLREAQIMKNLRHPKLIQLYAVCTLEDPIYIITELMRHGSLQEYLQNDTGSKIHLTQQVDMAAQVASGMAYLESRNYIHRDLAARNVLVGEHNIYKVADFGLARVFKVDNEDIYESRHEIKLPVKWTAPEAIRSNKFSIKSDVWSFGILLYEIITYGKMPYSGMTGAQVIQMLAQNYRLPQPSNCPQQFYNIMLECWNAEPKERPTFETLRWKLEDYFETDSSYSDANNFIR
Chain of MAPKAPK3 (human) (Q16644 whole entry, looked up): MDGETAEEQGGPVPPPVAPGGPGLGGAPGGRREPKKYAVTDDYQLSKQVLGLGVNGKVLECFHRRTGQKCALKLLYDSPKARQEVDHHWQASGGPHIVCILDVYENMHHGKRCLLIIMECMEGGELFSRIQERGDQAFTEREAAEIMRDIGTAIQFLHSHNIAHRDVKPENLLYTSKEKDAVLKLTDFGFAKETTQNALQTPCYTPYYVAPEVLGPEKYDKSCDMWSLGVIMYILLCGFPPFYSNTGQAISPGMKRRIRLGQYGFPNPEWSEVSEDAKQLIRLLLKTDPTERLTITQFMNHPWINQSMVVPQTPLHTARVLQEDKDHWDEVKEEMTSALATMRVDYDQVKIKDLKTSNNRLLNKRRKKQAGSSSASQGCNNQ
Chain of WEE1 (human) (P30291 whole entry, looked up): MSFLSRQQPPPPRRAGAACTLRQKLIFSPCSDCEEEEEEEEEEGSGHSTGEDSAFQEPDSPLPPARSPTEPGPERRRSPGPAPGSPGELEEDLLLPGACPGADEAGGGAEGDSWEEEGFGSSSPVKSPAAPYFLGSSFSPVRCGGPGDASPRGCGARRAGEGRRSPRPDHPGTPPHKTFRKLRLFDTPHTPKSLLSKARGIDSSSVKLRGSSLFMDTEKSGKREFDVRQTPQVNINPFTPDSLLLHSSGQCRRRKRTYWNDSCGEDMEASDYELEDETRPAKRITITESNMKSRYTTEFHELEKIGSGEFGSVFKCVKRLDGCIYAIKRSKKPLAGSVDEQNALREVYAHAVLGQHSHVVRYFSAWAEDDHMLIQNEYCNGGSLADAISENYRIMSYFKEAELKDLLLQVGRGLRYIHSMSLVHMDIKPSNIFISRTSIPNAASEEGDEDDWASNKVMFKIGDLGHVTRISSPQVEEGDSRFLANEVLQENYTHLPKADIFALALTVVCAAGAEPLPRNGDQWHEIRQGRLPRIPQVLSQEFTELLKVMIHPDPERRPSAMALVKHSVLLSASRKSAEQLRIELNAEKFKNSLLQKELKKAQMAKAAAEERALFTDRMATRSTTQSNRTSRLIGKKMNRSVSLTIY
Chain of AXL (human) (P30530 whole entry, looked up): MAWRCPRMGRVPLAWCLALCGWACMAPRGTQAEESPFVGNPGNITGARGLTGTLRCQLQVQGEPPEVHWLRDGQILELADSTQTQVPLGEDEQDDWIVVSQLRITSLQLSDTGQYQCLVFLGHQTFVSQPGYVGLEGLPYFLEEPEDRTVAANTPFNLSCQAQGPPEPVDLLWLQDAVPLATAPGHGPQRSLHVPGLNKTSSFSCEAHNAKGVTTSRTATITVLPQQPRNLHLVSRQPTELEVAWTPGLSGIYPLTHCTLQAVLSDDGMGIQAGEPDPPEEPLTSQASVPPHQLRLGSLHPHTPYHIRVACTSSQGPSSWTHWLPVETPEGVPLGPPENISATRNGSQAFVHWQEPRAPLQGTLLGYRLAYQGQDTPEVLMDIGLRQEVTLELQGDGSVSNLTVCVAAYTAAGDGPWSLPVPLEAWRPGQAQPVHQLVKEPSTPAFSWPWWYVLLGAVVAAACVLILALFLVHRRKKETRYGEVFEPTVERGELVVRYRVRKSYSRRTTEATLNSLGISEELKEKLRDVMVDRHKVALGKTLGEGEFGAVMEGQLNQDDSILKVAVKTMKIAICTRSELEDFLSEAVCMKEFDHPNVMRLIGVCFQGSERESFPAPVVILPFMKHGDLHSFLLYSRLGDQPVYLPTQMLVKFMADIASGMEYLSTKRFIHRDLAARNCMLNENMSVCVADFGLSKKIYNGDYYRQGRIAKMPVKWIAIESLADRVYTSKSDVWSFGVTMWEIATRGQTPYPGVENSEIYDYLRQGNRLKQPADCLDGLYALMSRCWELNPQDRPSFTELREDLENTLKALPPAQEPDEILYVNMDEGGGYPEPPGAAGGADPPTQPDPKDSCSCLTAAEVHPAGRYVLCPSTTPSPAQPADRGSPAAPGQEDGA
Chain of CAMK2B (human) (Q13554 whole entry, looked up): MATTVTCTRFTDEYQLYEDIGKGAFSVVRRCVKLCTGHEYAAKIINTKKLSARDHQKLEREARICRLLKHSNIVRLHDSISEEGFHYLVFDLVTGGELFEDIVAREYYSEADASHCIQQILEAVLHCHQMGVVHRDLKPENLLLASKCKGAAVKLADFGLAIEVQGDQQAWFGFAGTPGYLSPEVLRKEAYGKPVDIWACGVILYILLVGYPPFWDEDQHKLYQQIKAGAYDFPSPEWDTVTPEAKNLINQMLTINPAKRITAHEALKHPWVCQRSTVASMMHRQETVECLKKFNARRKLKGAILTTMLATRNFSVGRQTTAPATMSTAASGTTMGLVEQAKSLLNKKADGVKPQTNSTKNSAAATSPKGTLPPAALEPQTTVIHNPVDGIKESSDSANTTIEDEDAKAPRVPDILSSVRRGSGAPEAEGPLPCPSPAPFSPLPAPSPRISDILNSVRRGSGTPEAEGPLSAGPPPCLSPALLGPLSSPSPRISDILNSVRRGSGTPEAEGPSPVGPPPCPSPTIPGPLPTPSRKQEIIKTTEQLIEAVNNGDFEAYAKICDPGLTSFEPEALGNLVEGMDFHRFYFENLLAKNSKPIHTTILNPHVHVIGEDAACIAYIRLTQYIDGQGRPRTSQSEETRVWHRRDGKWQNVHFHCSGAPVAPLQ
Chain of ALK (human) (Q9UM73 whole entry, looked up): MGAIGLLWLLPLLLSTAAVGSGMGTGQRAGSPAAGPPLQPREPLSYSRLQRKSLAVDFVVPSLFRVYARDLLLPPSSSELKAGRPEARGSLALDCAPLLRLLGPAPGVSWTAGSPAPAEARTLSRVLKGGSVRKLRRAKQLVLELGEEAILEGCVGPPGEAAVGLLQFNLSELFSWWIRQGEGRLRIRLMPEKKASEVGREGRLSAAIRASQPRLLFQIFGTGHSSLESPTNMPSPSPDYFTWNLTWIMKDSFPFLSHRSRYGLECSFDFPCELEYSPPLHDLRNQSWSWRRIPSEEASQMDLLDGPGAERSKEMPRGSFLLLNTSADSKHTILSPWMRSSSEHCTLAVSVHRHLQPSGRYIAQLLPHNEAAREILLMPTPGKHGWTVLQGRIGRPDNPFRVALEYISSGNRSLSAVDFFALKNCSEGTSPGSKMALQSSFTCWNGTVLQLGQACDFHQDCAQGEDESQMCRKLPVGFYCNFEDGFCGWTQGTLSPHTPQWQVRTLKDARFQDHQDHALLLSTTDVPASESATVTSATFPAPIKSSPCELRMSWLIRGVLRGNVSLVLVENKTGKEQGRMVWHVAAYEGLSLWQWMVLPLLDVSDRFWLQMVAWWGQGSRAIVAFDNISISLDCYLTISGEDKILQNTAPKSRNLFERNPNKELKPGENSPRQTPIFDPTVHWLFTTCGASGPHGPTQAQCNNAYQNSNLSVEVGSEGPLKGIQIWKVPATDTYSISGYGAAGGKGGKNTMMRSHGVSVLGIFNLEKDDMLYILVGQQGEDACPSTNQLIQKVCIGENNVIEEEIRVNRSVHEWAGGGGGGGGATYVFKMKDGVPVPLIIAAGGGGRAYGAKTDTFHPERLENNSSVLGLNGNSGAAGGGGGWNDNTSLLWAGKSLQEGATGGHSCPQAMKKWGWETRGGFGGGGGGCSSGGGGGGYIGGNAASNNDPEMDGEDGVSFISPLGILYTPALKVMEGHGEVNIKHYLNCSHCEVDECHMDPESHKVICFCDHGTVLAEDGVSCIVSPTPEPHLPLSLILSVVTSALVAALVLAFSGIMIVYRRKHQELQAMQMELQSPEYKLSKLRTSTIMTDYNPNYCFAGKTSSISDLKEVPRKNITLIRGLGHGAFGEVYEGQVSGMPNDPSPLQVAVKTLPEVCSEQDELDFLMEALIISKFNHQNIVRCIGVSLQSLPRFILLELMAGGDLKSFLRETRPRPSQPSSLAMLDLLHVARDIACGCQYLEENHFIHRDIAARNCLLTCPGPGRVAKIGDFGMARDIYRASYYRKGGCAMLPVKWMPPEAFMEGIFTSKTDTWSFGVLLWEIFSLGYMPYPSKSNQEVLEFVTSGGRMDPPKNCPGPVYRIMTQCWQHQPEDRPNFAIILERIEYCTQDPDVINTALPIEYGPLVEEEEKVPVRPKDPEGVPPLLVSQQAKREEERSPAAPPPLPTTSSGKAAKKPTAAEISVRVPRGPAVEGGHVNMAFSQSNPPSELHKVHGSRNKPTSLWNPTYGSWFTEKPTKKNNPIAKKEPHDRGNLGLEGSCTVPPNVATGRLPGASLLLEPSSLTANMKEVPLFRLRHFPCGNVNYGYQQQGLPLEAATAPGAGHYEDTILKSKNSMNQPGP

## CCCC(=O)Oc1ccc2[nH]c(C(=O)c3cc4ccccc4[nH]3)cc2c1
ALK (human)
  residual activity: 83.7%
AXL (human)
  residual activity: 103%
CAMK2B (human)
  residual activity: 90%
CDK1 CCNB1 (human)
  residual activity: 106%
CDK5 CDK5R1 p25 (human)
  residual activity: 90.1%
CDK6 CCND3 (human)
  residual activity: 92.5%
CDK9 CCNT1 (human)
  residual activity: 105%
CHEK1 (human)
  residual activity: 89.7%
CSNK1A1 (human)
  residual activity: 94%
CSNK2A1 (human)
  residual activity: 99.8%
EPHB4 (human)
  residual activity: 101%
ERBB4 (human)
  residual activity: 99.8%
FLT1 (human)
  residual activity: 89.7%
FLT3 (human)
  residual activity: 79.9%
FRK (human)
  residual activity: 98.2%
FYN (human)
  residual activity: 102%
GRK4 (human)
  residual activity: 93.7%
GRK5 (human)
  residual activity: 100%
GRK7 (human)
  residual activity: 105%
KIT (human)
  residual activity: 82.4%
MAP4K5 (human)
  residual activity: 88%
MAPK1 (human)
  residual activity: 105%
MAPK11 (human)
  residual activity: 87.7%
MAPK13 (human)
  residual activity: 103%
MAPKAPK3 (human)
  residual activity: 94.3%
PAK1 (human)
  residual activity: 95.8%
PDGFRA (human)
  residual activity: 96.6%
PLK3 (human)
  residual activity: 98.4%
PRKACA (human)
  residual activity: 96.6%
PRKD1 (human)
  residual activity: 88.7%
PRKD2 (human)
  residual activity: 91.7%
RAF1 (human)
  residual activity: 98.7%
RET (human)
  residual activity: 100%
RPS6KA1 KD1 KD2 (human)
  residual activity: 91.3%
RPS6KA2 KD1 KD2 (human)
  residual activity: 85%
SRC (human)
  residual activity: 97%
STK10 (human)
  residual activity: 94.3%
TBK1 (human)
  residual activity: 119%
TGFBR2 (human)
  residual activity: 101%
WEE1 (human)
  residual activity: 85.8%
WNK3 (human)
  residual activity: 101%

## Nc1ccc2ncnc(NCCc3ccc(Oc4ccccc4)cc3)c2c1
ALK (human)
  residual activity: 108%
AXL (human)
  residual activity: 96.1%
CAMK2B (human)
  residual activity: 95.1%
CDK1 CCNB1 (human)
  residual activity: 96.3%
CDK5 CDK5R1 p25 (human)
  residual activity: 90.6%
CDK6 CCND3 (human)
  residual activity: 100%
CDK9 CCNT1 (human)
  residual activity: 101%
CHEK1 (human)
  residual activity: 101%
CSNK1A1 (human)
  residual activity: 102%
CSNK2A1 (human)
  residual activity: 95.2%
EPHB4 (human)
  residual activity: 104%
ERBB4 (human)
  residual activity: 70.2%
FLT1 (human)
  residual activity: 96%
FLT3 (human)
  residual activity: 103%
FRK (human)
  residual activity: 100%
FYN (human)
  residual activity: 103%
GRK4 (human)
  residual activity: 99.6%
GRK5 (human)
  residual activity: 98%
GRK7 (human)
  residual activity: 104%
KIT (human)
  residual activity: 99.7%
MAP4K5 (human)
  residual activity: 94.8%
MAPK1 (human)
  residual activity: 90.1%
MAPK11 (human)
  residual activity: 98.1%
MAPK13 (human)
  residual activity: 100%
MAPKAPK3 (human)
  residual activity: 101%
PAK1 (human)
  residual activity: 94.9%
PDGFRA (human)
  residual activity: 98.5%
PLK3 (human)
  residual activity: 98.7%
PRKACA (human)
  residual activity: 88.6%
PRKD1 (human)
  residual activity: 99.3%
PRKD2 (human)
  residual activity: 98.2%
RAF1 (human)
  residual activity: 98.2%
RET (human)
  residual activity: 101%
RPS6KA1 KD1 KD2 (human)
  residual activity: 108%
RPS6KA2 KD1 KD2 (human)
  residual activity: 100%
SRC (human)
  residual activity: 102%
STK10 (human)
  residual activity: 90.8%
TBK1 (human)
  residual activity: 100%
TGFBR2 (human)
  residual activity: 110%
WEE1 (human)
  residual activity: 86.2%
WNK3 (human)
  residual activity: 114%

## N#C/C(=C(/N)Sc1ccc(N)cc1)c1ccccc1C(F)(F)F
ALK (human)
  residual activity: 100%
AXL (human)
  residual activity: 119%
CAMK2B (human)
  residual activity: 93.5%
CDK1 CCNB1 (human)
  residual activity: 105%
CDK5 CDK5R1 p25 (human)
  residual activity: 93.1%
CDK6 CCND3 (human)
  residual activity: 103%
CDK9 CCNT1 (human)
  residual activity: 97.7%
CHEK1 (human)
  residual activity: 97.5%
CSNK1A1 (human)
  residual activity: 82.9%
CSNK2A1 (human)
  residual activity: 97.9%
EPHB4 (human)
  residual activity: 102%
ERBB4 (human)
  residual activity: 89.9%
FLT1 (human)
  residual activity: 85.4%
FLT3 (human)
  residual activity: 107%
FRK (human)
  residual activity: 102%
FYN (human)
  residual activity: 97.1%
GRK4 (human)
  residual activity: 98.4%
GRK5 (human)
  residual activity: 102%
GRK7 (human)
  residual activity: 113%
KIT (human)
  residual activity: 91.8%
MAP4K5 (human)
  residual activity: 94%
MAPK1 (human)
  residual activity: 86%
MAPK11 (human)
  residual activity: 112%
MAPK13 (human)
  residual activity: 104%
MAPKAPK3 (human)
  residual activity: 102%
PAK1 (human)
  residual activity: 94.3%
PDGFRA (human)
  residual activity: 99.5%
PLK3 (human)
  residual activity: 96.9%
PRKACA (human)
  residual activity: 109%
PRKD1 (human)
  residual activity: 103%
PRKD2 (human)
  residual activity: 93.4%
RAF1 (human)
  residual activity: 103%
RET (human)
  residual activity: 101%
RPS6KA1 KD1 KD2 (human)
  residual activity: 88.7%
RPS6KA2 KD1 KD2 (human)
  residual activity: 99.2%
SRC (human)
  residual activity: 94.1%
STK10 (human)
  residual activity: 88.7%
TBK1 (human)
  residual activity: 98.1%
TGFBR2 (human)
  residual activity: 113%
WEE1 (human)
  residual activity: 73.8%
WNK3 (human)
  residual activity: 94.9%

## O=C1Nc2ccc(Cl)cc2/C1=C/c1cc(Cl)c(O)c(Cl)c1
ALK (human)
  residual activity: 65.8%
AXL (human)
  residual activity: 106%
CAMK2B (human)
  residual activity: 92%
CDK1 CCNB1 (human)
  residual activity: 96.3%
CDK5 CDK5R1 p25 (human)
  residual activity: 82.6%
CDK6 CCND3 (human)
  residual activity: 94.1%
CDK9 CCNT1 (human)
  residual activity: 95.2%
CHEK1 (human)
  residual activity: 86.4%
CSNK1A1 (human)
  residual activity: 92.6%
CSNK2A1 (human)
  residual activity: 26.5%
EPHB4 (human)
  residual activity: 100%
ERBB4 (human)
  residual activity: 94.2%
FLT1 (human)
  residual activity: 85%
FLT3 (human)
  residual activity: 26.5%
FRK (human)
  residual activity: 70.3%
FYN (human)
  residual activity: 73%
GRK4 (human)
  residual activity: 108%
GRK5 (human)
  residual activity: 95.8%
GRK7 (human)
  residual activity: 97.3%
KIT (human)
  residual activity: 35%
MAP4K5 (human)
  residual activity: 75.9%
MAPK1 (human)
  residual activity: 84.3%
MAPK11 (human)
  residual activity: 99.2%
MAPK13 (human)
  residual activity: 97.8%
MAPKAPK3 (human)
  residual activity: 88.4%
PAK1 (human)
  residual activity: 97.2%
PDGFRA (human)
  residual activity: 70.3%
PLK3 (human)
  residual activity: 98.2%
PRKACA (human)
  residual activity: 101%
PRKD1 (human)
  residual activity: 91.5%
PRKD2 (human)
  residual activity: 95.5%
RAF1 (human)
  residual activity: 6.93%
RET (human)
  residual activity: 80.4%
RPS6KA1 KD1 KD2 (human)
  residual activity: 48.4%
RPS6KA2 KD1 KD2 (human)
  residual activity: 71.9%
SRC (human)
  residual activity: 96.2%
STK10 (human)
  residual activity: 77.1%
TBK1 (human)
  residual activity: 86.8%
TGFBR2 (human)
  residual activity: 94.9%
WEE1 (human)
  residual activity: 79.1%
WNK3 (human)
  residual activity: 90.7%
